Results taken from ChEMBL document CHEMBL5728229, “Halo-substituted piperidines as orexin receptor modulators” (2021).

What was measured:
Orexin receptor type 2 = target: T1, Orexin receptor type 2 (Homo sapiens, UniProt O43614); test: (§1) Orexin Receptor Cell-Based Functional Assay: Measurement of [Ca2+]i using a FLIPR: CHO—OX1 or CHO—OX2 cells were seeded into black-walled clear-base 384-well plates (Corning, catalog #3712) at a density of 20,000 cells per well in F12-K medium supplemented with 10% FBS and then incubated in a 5% CO2, 37° C. incubator overnight to reach 90% confluency. The cells were incubated with equal volume of calcium 6 loading buffer (Molecular Devices, Inc.) containing 2.5 mM probenecid at 37° C. for 2 h, followed by test compounds (dose-range 0.1 nM-10 μM) for another 30 min. The plates were then placed into a FLIPR (Molecular Devices, Inc.) to monitor fluorescence (λ excitation 488 nm, λ emission 540 nm) before and after the addition of EC90 of [OX].
T1 sequence (O43614 whole entry): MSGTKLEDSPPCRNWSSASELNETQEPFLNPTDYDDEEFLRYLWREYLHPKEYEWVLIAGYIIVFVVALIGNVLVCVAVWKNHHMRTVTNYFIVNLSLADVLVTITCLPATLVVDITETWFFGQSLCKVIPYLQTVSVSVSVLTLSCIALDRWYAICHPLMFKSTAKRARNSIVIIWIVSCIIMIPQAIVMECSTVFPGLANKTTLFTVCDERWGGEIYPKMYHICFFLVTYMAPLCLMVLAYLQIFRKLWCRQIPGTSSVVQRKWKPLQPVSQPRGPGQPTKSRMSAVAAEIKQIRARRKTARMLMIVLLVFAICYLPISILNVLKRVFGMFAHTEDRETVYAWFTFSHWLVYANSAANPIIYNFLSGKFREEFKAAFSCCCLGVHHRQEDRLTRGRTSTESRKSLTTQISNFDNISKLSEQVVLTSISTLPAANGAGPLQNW

[1] = target: T2, Orexin/Hypocretin receptor type 1 (Homo sapiens, UniProt O43613); test: as §1
T2 sequence (O43613 whole entry): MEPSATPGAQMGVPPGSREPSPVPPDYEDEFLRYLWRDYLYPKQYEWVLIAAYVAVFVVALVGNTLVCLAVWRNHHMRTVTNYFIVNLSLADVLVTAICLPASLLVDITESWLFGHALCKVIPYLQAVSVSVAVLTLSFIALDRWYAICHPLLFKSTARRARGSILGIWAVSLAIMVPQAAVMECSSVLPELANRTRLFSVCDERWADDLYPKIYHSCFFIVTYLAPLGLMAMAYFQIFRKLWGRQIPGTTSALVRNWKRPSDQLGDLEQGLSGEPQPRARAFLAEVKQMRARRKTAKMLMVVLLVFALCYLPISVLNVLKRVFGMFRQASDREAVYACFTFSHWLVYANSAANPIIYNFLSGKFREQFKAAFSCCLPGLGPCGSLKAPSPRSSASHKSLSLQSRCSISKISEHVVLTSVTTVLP

Row | Compound | IC50 (Orexin receptor type 2) | IC50 [1]
1 | C[C@@H]1CC(F)(F)CN(C(=O)c2nn(C)cc2-c2ccccc2)[C@@H]1COc1ccc(C(F)(F)F)cn1 | > 5 µM | 8 nM
2 | C[C@@H]1CC(F)(F)CN(C(=O)c2nn(C)cc2-c2ncc(F)cn2)[C@@H]1COc1ncc(C(F)(F)F)cc1F | – | 1000 nM
3 | C[C@@H]1CC(F)(F)CN(C(=O)c2nn(C)cc2-c2ncc(F)cn2)[C@@H]1COc1cnc(C(F)(F)F)cn1 | – | 1000 nM
